Assay results reported in patent US8048870B2, “Apoptosis-inducing antineoplastic silver (I) coordination complexes” (priority 2005, dated 2011).

Legend:
T-47D cells = test: DeadEnd Colorimetric TUNEL assay for in-situ apoptosis, T-47D; assay type: cell-based, human; details: 18 hours of incubation
Method: (§1) Detection of in-situ apoptosis was performed by the DeadEnd Colorimetric TUNEL (terminal deoxynucleotidyltransferase nick end labeling) assay for the detection of apoptosis in cultured cells as described in Promega kit (Promega Corporation-2800 Woods Hollow Road, Madison, Wis. 53711-5399, USA). Briefly, control and apoptosis-induced cells were centrifuged, washed with PBS, and were fixed on glass slides coated with poly-L-lysine (Sigma-Aldrich). The cells were fixed by immersing the slides in 10% buffered formalin, 4% paraformaldehyde solution for 25 minutes at room temperature. The fixed cells were then washed twice with fresh PBS for 5 minutes at room temperature. The cells were permeabilized by immersing the slides in 0.2% Triton® X-100 solution in PBS for 5 minutes at room temperature. The slides were then rinsed twice with PBS for 5 minutes each at room temperature. The excess liquid was then removed by tapping the slides, and the cells were covered with 100 μL of Equilibration Buffer, and the slides were equilibrated for 8 minutes at room temperature. Then, 100 μL of rTdT reaction mix were added and blotted around the equilibrated areas. The slides were then incubated at 37° C. for an hour inside a humidifier. Then, the reactions were terminated, the slides were washed and 0.3% hydrogen peroxide, and other reagents and washing steps were conducted according to the manufacturer's instructions. The slides were then observed under a light microscope for apoptotic staining. For comparative purposes, apoptotic studies were also performed on cisplatin. […]
(§2) To examine the mode of inherent chemotherapeutic activities of silver (I) complexes, apoptosis was detected by the TUNEL assay for each cell line studies for Phases I, II and III identified above. […] The 18 and 6-hour incubation periods were chosen because it was determined in previous experiments of this work that induction of apoptosis of silver (I) complex was within these times for these two cell lines.

[1] = test system: T-47D human breast carcinoma; test: Cytotoxicity (% inhibition), trypan blue dye exclusion viable cell count, T-47D; assay type: cell-based
Method: The chemotherapeutic activities of the silver (I) coordination complex were determined on T-47D human breast carcinoma and Jurkat T-cell acute lymphoblastic leukemia, and compared with cisplatin (Pt(NH3)2Cl2) at 385 μg/mL, corresponding to 250 μg/mL platinum, which is the same concentration used for Ag for the experiments described in Examples 1 and 2, below. The two tumor cell lines were chosen very carefully so as to include solid (T-47D) and disseminated (Jurkat) neoplasia. Cells are plated in a 96-well flat bottom tissue culture plates at 50,000 cells/well. The experiments were conducted by serial dilution.
All cell lines were grown and tested in complete RPMI-1640 medium supplemented with 10% FBS, 40 μg/mL GEN, HEPES buffer of pH=7.2, 2 mM L-glutamine and sodium pyruvate. Plates were incubated in 5% CO2 at 37° C. in a humidified incubator for 24 hrs. Human tumor cells were maintained in the log phase by routine passaging every 2-3 days.
To assess % inhibition of tumor cells, the number of viable cells were counted by trypan blue dye exclusion method on a hemocytometer by microscopy, and adjusted for concentration of cells/mL. Briefly, each well was plated and washed with PBS twice and then harvested with 0.5 mL of Trypsin/EDTA. Cells were diluted with 1 ml of culture media and stained with trypan blue dye.
To examine if there was any interaction between culture medium and test reagents, the test culture was also inoculated with the present reagents without the presence of any of the drugs. […] All experiments were done in triplicates, and the results are averaged and reported.
Regression models were applied to the data to assess the correlation between % inhibition and concentration. Multiple curve estimation procedure was employed, and the relative fit for each model was determined on the basis of the values of the correlation coefficient, r^2; the fit that gives r^2 values closer to 1.0 was selected. The regression equations were then integrated over the concentration intervals for each phase, and their sum was taken as the AUCt>24.

Jurkat cells = test: DeadEnd Colorimetric TUNEL assay for in-situ apoptosis, Jurkat; assay type: cell-based, human; details: 6 hours of incubation
Method: as §1, §2

[2] = patients, i.v. injections; cited from earlier work

N.N.[Cl][Pt][Cl] [CIS-Pt, cis-diaminedichloroplatinum (II)]
apoptotic staining (TUNEL) (T-47D cells; 0.0076 μg/mL (Phase I)): absent | apoptotic staining (TUNEL) (T-47D cells; 3.906 μg/mL (Phase II)): evident | apoptotic staining (TUNEL) (T-47D cells; 15.625 μg/mL (Phase III)): evident | calculated AUCt>24 ([1]; Phase I): 0.0 cfu·μg/mL | calculated AUCt>24 ([1]; Phase II): 2.05 cfu·μg/mL | calculated AUCt>24 ([1]; Phase III): 107 cfu·μg/mL | average % inhibition ([1]; range of 0.0019-0.0152 μg/mL metal): 0% | apoptotic staining (TUNEL) (Jurkat cells; 0.0076 μg/mL (Phase I)): evident | apoptotic staining (TUNEL) (Jurkat cells; 3.906 μg/mL (Phase II)): evident | apoptotic staining (TUNEL) (Jurkat cells; 15.625 μg/mL (Phase III)): evident

silver arsphenamine
LOAEL (lowest-observed-adverse-effect level) for argyria [2]: 0.014 mg/kg/day
